Data as given in patent US8716294B2, “Methods for treating inflammatory conditions” (Melior Discovery, Inc., priority 2006, dated 2014).

Key:
Type in all cases: in vivo
ICR:CD1 male mice [1] = assay: Oxazolone contact hypersensitivity (contact dermatitis), ear redness and thickness; conditions: all three doses (10, 30, 100 mg/kg)
Procedure: Contact Hypersensitivity (Contact Dermatitis). Contact hypersensitivity (CHS)^3 is a T cell-mediated cutaneous immune/inflammatory reaction to haptens. Oxazolone can be used to evoke a contact hypersensitivity reaction and produce an animal model of contact dermatitis. Tenilsetam was assessed for its ability to affect oxazolone mediated contact dermatitis reaction.
Materials and Methods. ICR:CD1 male mice (Harlan) 12 to 13 weeks of age were used for this study. Animals were kept on a 12 hr light dark cycle and fed ad libitum.
Oxazolone sensitization. Mice were exposed to 50 μL of 3% oxazolone (in 100% ethanol) via topical application to the skin of the abdomen. Additional exposure was via the 4 paws with a small amount of oxazolone.
Oxazolone challenge. On day 5, both ears of mice were exposed to 1% oxazolone (20 μL per ear; 10 μL/side of ear).
Analysis. On day 6, ears were scored for redness on a 0-3 scoring basis and were measured for thickness using a micrometer. These values were recorded, group values were averaged and statistical differences determined by ANOVA followed by a Mann-Whitney U-test (for visual score) or by Tukey's test (for ear thickness). A p value of less than 0.05 was used to indicate statistical significance.
For this study, there were 5 groups: vehicle, and tenilsetam at 3 dose levels: 10, 30 and 100 mg/kg. In addition, there was a dexamethasone group. […]

ICR:CD1 male mice [2] = assay: Delayed-type hypersensitivity (DTH), sheep red blood cell challenge, footpad swelling; conditions: SRBC challenge into footpad, all three doses (10, 30, 100 mg/kg)
Procedure: In this study, tenilsetam was assessed for its ability to affect the delayed-type hypersensitivity (DTH) reactions. DTH reactions are antigen-specific cell-mediated immune responses that can mediate harmful (e.g., allergic dermatitis and autoimmunity) aspects of immune function. The immune reaction induced by the method described below is characterized by swelling at the site of challenge and by an infiltration of monocytes/macrophages and lymphocytes into the epidermis and dermis. This model for skin DTH reactions has been used widely to monitor cell-mediated immune responses in vivo. […] (dexamethasone), a steroid anti-inflammatory, reduces cell-mediated immune responses and was employed to pharmacologically validate the assay.
Materials and Methods. ICR:CD1 male mice (Harlan) 12 to 13 weeks of age were used for this study. Animals were kept on a 12 hr light dark cycle and fed ad libitum. On day 1 of the study, mice were injected IV with 1×10^6 of washed sheep red blood cells in a volume of 200 μL. Mice were administered tenilsetam on day 6. […]
On day 7, mice were re-administered drug as above. Footpad thickness of both the back right and back left foot pads was measured using a digital micrometer. […]
Data are expressed as the average±SEM. Data were averaged and analyzed by ANOVA followed by a post-hoc Tukey's test with a p value of less then 0.05 indicating a statistical difference. […]

TNFα = assay: Lipopolysaccharide general inflammation / septic shock model, TNFα by ELISA; conditions: mice, LPS 0.25 mg/kg ip, blood 90 minutes after LPS; doses of 10 and 30 mg/kg, given 15 minutes prior to LPS; FIG. 3
Source text: Lipopolysaccharide General Inflammation. Bolus injection of lethal or sublethal doses of lipopolysaccharide (LPS; the major component of bacterial cell wall) results in the rapid and transient rise in tumor necrosis factor (TNFα) levels in serum in mammals. This animal model was developed to mirror certain aspects of septic shock in humans. This model is also an effective first-line general inflammation model and may be used to determine the anti-inflammatory potential of test compounds.
Materials and methods. Male ICR:CD1 mice (Harlan Sprague Dawley, Indianapolis, Ind.) 9 to 10 weeks of age were housed three per cage, kept on a standard 12 hr light cycle and fed western (high-fat) diet for 5.5 weeks for these studies. Mice were provided food and water ad libitum.
Lipopolysaccharide (heat killed E. coli 0127:B5; SigmaAldrich) was prepared in water at a concentration of 0.025 mg/ml. LPS was dosed at a volume of 10 ml/kg (ip) to produce a final dose of 0.25 mg/kg or 7.5 μg/mouse. […] Plasma was prepared from blood and TNFα levels determined by ELISA as described below.
Serum TNFα levels were determined using the OptEIA™ mouse TNFα ELISA kit (BD Biosciences) as per directions of the manufacturer. Data were averaged and analyzed by ANOVA followed by a post-hoc Tukey's test with a p value of less then 0.05 indicating a statistical difference. […]

## O=C1NCCNC1c1cccs1 (racemic) [Tenilsetam, (+/−)-3-(2-thienyl)-2-piperazinone]
ICR:CD1 male mice [1]; day 6, 0-3 redness score, FIG. 2A
  ear swelling after oxazolone challenge, visual scoring: significantly decreased
ICR:CD1 male mice [1]; day 6, micrometer, FIG. 2B
  ear swelling after oxazolone challenge, ear thickness measurements: significantly decreased
ICR:CD1 male mice [2]
  foot swelling by visual examination: significantly decreased
ICR:CD1 male mice [2]; FIG. 1
  foot swelling as measured using a micrometer: significantly decreased
TNFα
  TNFα levels: decreased
